By Ki is commonly meant a dissociation constant, usually derived from enzyme kinetics or from competition with a known ligand.

Bounds are passed on as bounds.

One experiment addresses T1, human H3 receptor (Homo sapiens, UniProt Q9Y5N1).
T1 construct: expressed in transfected cells
In words: Human H3 radioligand binding ([3H]-N-alpha-methylhistamine, CHO cell membranes, SPA). The conditions noted are these: Table A, binding constant as letter class. Here is the method:
(§1) Cell pellets were resuspended in 5 mM Tris-HCl, pH 7.5 with […] and a cocktail of protease inhibitors (Complete Protease Inhibition Tablets, Roche Diagnostics). Cells were disrupted using a polytron cell homogenizer and the suspension was centrifuged at 1000×g for 10 minutes at 4° C. The pellet was discarded and the supernatant centrifuged at 40,000×g for 30 min at 4° C. This membrane pellet was washed in membrane buffer containing 50 mM Tris-HCl, pH 7.5 with 0.6 mM EDTA, 5 mM MgCl2 and protease inhibitors, recentrifuged as above and the final pellet resuspended in membrane buffer plus 250 mM sucrose and frozen at −80° C.
(§2) Membranes were resuspended in 50 mM Tris HCl (pH 7.4), 5 mM MgCl2, 0.1% BSA. The membrane suspensions (10 μg protein per well) were incubated in a 96 well microtiter plate with [^3H]-N-alpha-methylhistamine (approximately 1 nM final concentration), test compounds at various concentrations (0.01 nM-30 μM) and scintillation proximity beads (Perkin Elmer, FlashBlueGPCR Scintillating Beads) in a final volume of 80 μl for 4 hours at room temperature, protected from light. Non-specific binding was determined in the presence of 10 μM clobenpropit. Radioligand bound to receptor, and therefore in proximity to the scintillation beads, was measured using a MicroBeta scintillation counter.

Experiment [1] concerns the target T2, rat histamine H3 receptor (Rattus norvegicus, UniProt Q9QYN8).
T2 construct: encoding the entire 445-amino-acid rat histamine H3 receptor; expressed in transfected cells
In words: Rat H3 radioligand binding ([3H]-N-alpha-methylhistamine, CHO-A3 cell membranes, SPA). The conditions noted are these: Table A, binding constant as letter class; read-out: Rat H3 Ki. Here is the method:
as §1, with “This was engineered into the pIRES-neo3 mammalian expression vector, which was stably transfected into the CHO-A3 cell line (Euroscreen, Belgium), followed by clonal selection by limiting dilution. Cells were harvested and cell pellets were frozen (−80° C.). Cell pellets” for “Cell pellets”
as §2

T2 sequence (Q9QYN8 whole entry): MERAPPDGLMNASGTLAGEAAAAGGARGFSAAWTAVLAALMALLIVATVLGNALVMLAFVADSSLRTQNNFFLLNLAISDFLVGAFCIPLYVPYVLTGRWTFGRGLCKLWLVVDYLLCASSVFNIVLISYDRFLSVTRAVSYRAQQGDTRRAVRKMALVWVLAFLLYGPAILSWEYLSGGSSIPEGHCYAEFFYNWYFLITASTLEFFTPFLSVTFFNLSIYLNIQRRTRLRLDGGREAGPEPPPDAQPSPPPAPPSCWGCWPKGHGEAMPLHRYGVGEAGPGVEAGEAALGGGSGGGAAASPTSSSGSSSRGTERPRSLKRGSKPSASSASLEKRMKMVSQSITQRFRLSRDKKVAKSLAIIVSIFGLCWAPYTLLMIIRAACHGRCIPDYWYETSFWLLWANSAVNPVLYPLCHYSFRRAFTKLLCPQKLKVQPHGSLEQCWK
T1 sequence (Q9Y5N1 whole entry): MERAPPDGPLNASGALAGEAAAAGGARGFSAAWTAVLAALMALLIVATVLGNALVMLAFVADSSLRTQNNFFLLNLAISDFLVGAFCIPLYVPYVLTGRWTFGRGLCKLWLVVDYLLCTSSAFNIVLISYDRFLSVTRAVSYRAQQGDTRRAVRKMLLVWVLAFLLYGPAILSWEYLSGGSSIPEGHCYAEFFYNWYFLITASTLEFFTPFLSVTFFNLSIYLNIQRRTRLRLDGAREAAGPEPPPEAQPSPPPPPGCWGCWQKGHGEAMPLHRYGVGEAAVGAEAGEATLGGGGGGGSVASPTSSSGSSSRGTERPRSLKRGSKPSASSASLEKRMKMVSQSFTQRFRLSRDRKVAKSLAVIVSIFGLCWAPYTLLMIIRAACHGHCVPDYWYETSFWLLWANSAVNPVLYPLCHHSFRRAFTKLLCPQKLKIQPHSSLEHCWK

Consider `C[C@@H]1CCCN1CCCOc1ccc(-c2ccc(=O)n(Cc3ccccc3)n2)cc1` [Example 18, 2-Benzyl-6-{4-[3-((R)-2-methyl-pyrrolidin-1-yl)-propoxy]-phenyl}-2H-pyridazin-3-one], for which the Ki (on human H3 receptor; in experiment [1]) was 0.1 to 100 nM each time.

Take `C[C@@H]1CCCN1CCCOc1ccc(C2=NN(c3ccccc3)C(=O)CC2)cc1` [Example 19]: the inhibitory constant (Ki) (at human H3 receptor; in experiment [1]) was 0.1 to 100 nM in each case.

For the compound `C[C@@H]1CCCN1CCCOc1ccc(-c2ccc(=O)n(-c3ccccc3)n2)cc1` [Example 20, 6-{4-[3-((R)-2-Methyl-pyrrolidin-1-yl)-propoxy]-phenyl}-2-phenyl-2H-pyridazin-3-one], the inhibition constant Ki (on human H3 receptor; in experiment [1]) was 0.1 to 100 nM each time.

As for `C[C@@H]1CCCN1CCCOc1ccc(-n2ncccc2=O)cc1` [Example 21, 2-{4-[3-((R)-2-Methyl-pyrrolidin-1-yl)-propoxy]-phenyl}-2H-pyridazin-3-one], the Ki was in the range of 0.1 to 100 nM on human H3 receptor and 501 to 1000 nM in experiment [1].

Consider `CC(C)n1nc(-c2ccc(OCCCN3CCC[C@H]3C)cc2)c2sccc2c1=O` [Example 22, 5-Isopropyl-7-{4-[3-((R)-2-methyl-pyrrolidin-1-yl)-propoxy]-phenyl}-5H-thieno[2,3-d]pyridazin-4-one], for which the Ki (on human H3 receptor; in experiment [1]) was 0.1 to 100 nM in each case.

For the compound `CC1CCC(C)N1CCCOc1ccc(-c2nn(C(C)C)c(=O)c3ccsc23)cc1` (centres unmarked) [Example 23, 7-{4-[3-(2,5-Dimethyl-pyrrolidin-1-yl)-propoxy]-phenyl}-5-isopropyl-5H-thieno[2,3-d]pyridazin-4-one], the Ki on human H3 receptor lay in the range of 0.1 to 100 nM; in experiment [1], 101 to 500 nM.

For `CC(C)n1nc(-c2ccc(OCCCN3CCCCC3)cc2)c2sccc2c1=O` [Example 24, 5-Isopropyl-7-[4-(3-piperidin-1-yl-propoxy)-phenyl]-5H-thieno[2,3-d]pyridazin-4-one], the Ki (on human H3 receptor; in experiment [1]) was 0.1 to 100 nM each time.

`CC(C)n1nc(-c2ccc(OCCCN3CCCC(C)(C)C3)cc2)c2sccc2c1=O` [Example 25, 7-{4-[3-(3,3-Dimethyl-piperidin-1-yl)-propoxy]-phenyl}-5-isopropyl-5H-thieno[2,3-d]pyridazin-4-one]: the figures for the Ki (on human H3 receptor; in experiment [1]) were 101 to 500 nM and more than 1000 nM, respectively.

`COC[C@@H]1CCCN1CCCOc1ccc(-c2nn(C(C)C)c(=O)c3ccsc23)cc1` [Example 26, 5-Isopropyl-7-{4-[3-((S)-2-methoxymethyl-pyrrolidin-1-yl)propoxy]-phenyl}-5H-thieno[2,3-d]pyridazin-4-one]: the Ki on human H3 receptor was 0.1 to 100 nM; in experiment [1] it was more than 1000 nM.

In the case of `COC[C@H]1CCCN1CCCOc1ccc(-c2nn(C(C)C)c(=O)c3ccsc23)cc1` [Example 27, 5-Isopropyl-7-{4-[3-((R)-2-methoxymethyl-pyrrolidin-1-yl)-propoxy]-phenyl}-5H-thieno[2,3-d]pyridazin-4-one], the inhibition constant (Ki) (at human H3 receptor; in experiment [1]) was more than 1000 nM each time.

For the compound `CCN(CC)CCCOc1ccc(-c2nn(C(C)C)c(=O)c3ccsc23)cc1` [Example 28, 7-[4-(3-Diethylamino-propoxy)-phenyl]-5-isopropyl-5H-thieno[2,3-d]pyridazin-4-one], the Ki on human H3 receptor was 0.1 to 100 nM; in experiment [1], 101 to 500 nM.

Regarding `CC(C)n1nc(-c2ccc(OCCCN3CCCC3)cc2)c2sccc2c1=O` [Example 29, 5-Isopropyl-7-[4-(3-pyrrolidin-1-yl-propoxy)-phenyl]-5H-thieno[2,3-d]-pyridazin-4-one], the Ki (at human H3 receptor; in experiment [1]) was 0.1 to 100 nM throughout.

In the case of `CC(C)n1nc(-c2ccc(OCCCN3CCC(N4CCCC4)CC3)cc2)c2sccc2c1=O` [Example 30, 5-Isopropyl-7-{4-[3-(4-pyrrolidin-1-yl-piperidin-1-yl)-propoxy]-phenyl}-5H-thieno[2,3-d]pyridazin-4-one], the Ki fell in the range of 0.1 to 100 nM at human H3 receptor and 501 to 1000 nM in experiment [1].

The values are drawn from patent US8586588B2, “Aryl pyridazinone derivatives and their use as H3 receptor ligands” (Cephalon, Inc., priority 2006, dated 2013).
